This note sets out measurements from patent publication US8501752B2, “Methods for treating cancer and other pathological proliferating disorders by inhibiting mitosis using pyrrolo[2,3-d]pyrimidines” (Duquesne University of the Holy Ghost, priority 2005, dated 2013).

One assay deals with MOLT-4. Description: NCI IVCLSP growth inhibition (SRB), MOLT-4. The class given is cell-based, human. To be noted: 48 h drug incubation. Here is the method: (§1) FIG. 1 presents nine compounds that were tested using the National Cancer Institute (NCI) 60 human tumor cell lines. The cells lines, which represent leukemia, melanoma, and cancers of the lung, colon, brain, ovary, breast, prostate, and kidney, are listed in Table 1.
(§2) Compounds 1-9 were tested according to the NCI Developmental Therapeutics Program (DTP) In Vitro Cell Line Screening Project (IVCLSP). […] Methodology for testing under the IVCLSP is as follows: The human tumor cell lines of the cancer screening panel are grown in RPMI 1640 medium containing 5% fetal bovine serum and 2 mM L-glutamine. […]
(§3) Following drug addition, the plates are incubated for an additional 48 h at 37° C., 5% CO2, 95% air, and 100% relative humidity. […] Bound stain is subsequently solubilized with 10 mM trizma base, and the absorbance is read on an automated plate reader at a wavelength of 515 nm. […] Using the seven absorbance measurements [time zero, (Tz), control growth, (C), and test growth in the presence of drug at the five concentration levels (Ti)], the percentage growth is calculated at each of the drug concentrations levels. Percentage growth inhibition is calculated as: [(Ti−Tz)/(C−Tz)]×100 for concentrations for which Ti>/=Tz [(Ti−Tz)/Tz]×100 for concentrations for which Ti<Tz.
(§4) Three dose response parameters are calculated for each experimental agent. […]

Another assay has as its system HOP-92. Description: NCI IVCLSP growth inhibition (SRB), HOP-92. It is filed as cell-based, human. The following applies: 48 h drug incubation. As for the experimental part:
as §1, §2, §3, §4

In a further assay the test system is NCI-H322M. Description: NCI IVCLSP growth inhibition (SRB), NCI-H322M. It is filed as cell-based, human. To be noted: 48 h drug incubation. As for the experimental part:
as §1, §2, §3, §4

The test system of a further assay is NCI-H522. Description: NCI IVCLSP growth inhibition (SRB), NCI-H522. It is filed as cell-based, human. The following applies: 48 h drug incubation. Here is the method: as §1, §2, §3, §4
A further assay relates to SK-MEL-2. Kind of assay: NCI IVCLSP growth inhibition (SRB), SK-MEL-2. It is filed as cell-based, human. To be noted: 48 h drug incubation. As for the experimental part: as §1, §2, §3, §4
A further assay relates to UACC-62. Kind of assay: NCI IVCLSP growth inhibition (SRB), UACC-62. The class given is cell-based, human. The following applies: 48 h drug incubation. Here is the method:
as §1, §2, §3, §4

Another assay has as its system IGROVI. Description: NCI IVCLSP growth inhibition (SRB), IGROVI. The following applies: 48 h drug incubation. The class given is cell-based, human. As for the experimental part:
as §1, §2, §3, §4

The test system of a further assay is OVCAR-4. Kind of assay: NCI IVCLSP growth inhibition (SRB), OVCAR-4. It is filed as cell-based, human. The following applies: 48 h drug incubation. Here is the method:
as §1, §2, §3, §4

A further assay relates to OVCAR-8. Description: NCI IVCLSP growth inhibition (SRB), OVCAR-8. It is filed as cell-based, human. The following applies: 48 h drug incubation. Here is the method:
as §1, §2, §3, §4

The next assay relates to SK-OV-3. Description: NCI IVCLSP growth inhibition (SRB), SK-OV-3. The following applies: 48 h drug incubation. It is filed as cell-based, human. Here is the method: as §1, §2, §3, §4
In the next assay the test system is ACHN. Description: NCI IVCLSP growth inhibition (SRB), ACHN. The class given is cell-based, human. The following applies: 48 h drug incubation. Here is the method:
as §1, §2, §3, §4

The subject of a further assay is CAKI-1. Kind of assay: NCI IVCLSP growth inhibition (SRB), CAKI-1. The class given is cell-based, human. The following applies: 48 h drug incubation. Here is the method:
as §1, §2, §3, §4

The next assay deals with HCT-116. Kind of assay: NCI IVCLSP growth inhibition (SRB), HCT-116. The class given is cell-based, human. To be noted: 48 h drug incubation. Here is the method: as §1, §2, §3, §4
A further assay relates to HCT-15. Description: NCI IVCLSP growth inhibition (SRB), HCT-15. The following applies: 48 h drug incubation. The class given is cell-based, human. As for the experimental part: as §1, §2, §3, §4
Another assay relates to MALME-3M. Kind of assay: NCI IVCLSP growth inhibition (SRB), MALME-3M. It is filed as cell-based, human. To be noted: 48 h drug incubation. As for the experimental part:
as §1, §2, §3, §4

Another assay relates to RXF 393. Description: NCI IVCLSP growth inhibition (SRB), RXF 393. To be noted: 48 h drug incubation. The class given is cell-based, human. As for the experimental part: as §1, §2, §3, §4
In a further assay the test system is UO-31. Description: NCI IVCLSP growth inhibition (SRB), UO-31. To be noted: 48 h drug incubation. The class given is cell-based, human. As for the experimental part: as §1, §2, §3, §4
Another assay relates to DU-145. Description: NCI IVCLSP growth inhibition (SRB), DU-145. The class given is cell-based, human. To be noted: 48 h drug incubation. As for the experimental part:
as §1, §2, §3, §4

A further assay has as its system MCF7. Description: NCI IVCLSP growth inhibition (SRB), MCF7. It is filed as cell-based, human. To be noted: 48 h drug incubation. Here is the method:
as §1, §2, §3, §4

The test system of a further assay is MDA-MB-231/ATCC. Description: NCI IVCLSP growth inhibition (SRB), MDA-MB-231/ATCC. The following applies: 48 h drug incubation. It is filed as cell-based, human. Here is the method:
as §1, §2, §3, §4

Assay [1] deals with A-10 rat smooth muscle cells. Kind of assay: Microtubule structure, indirect immunofluorescence, A-10 cells. The class given is cell-based. The following applies: 24 hours; 625 nM TAXOL, 167 nM vinblastine, 900 nM Compound 1. Here is the method:
Because of the morphological effects of Compound 1 on cultured cells and the NCI COMPARE analysis results described above, the effects of vinblastine, TAXOL (paclitaxel), and Compound 1 on microtubule structure were examined. For these studies, A-10 rat smooth muscle cells were used since they grow as flat monolayers that are amenable to imaging. The A-10 cells were treated for 24 hours with EtOH (control), 625 nM TAXOL (paclitaxel), 167 nM vinblastine, and 900 nM of Compound 1. Microtubules were then visualized by indirect immunofluoresence staining with B-tubulin antibodies. FIGS. 2a-d present representative fields for the control, TAXOL (paclitaxel), vinblastine, and Compound 1 (“149”), respectively. None of these compounds affected the morphology of stress fibers composed of microfilaments.

Structures are written as SMILES.

As for `COc1cc(CCc2cn(Cc3ccccc3)c3nc(N)nc(C)c23)cc(OC)c1OC` [Compound 1], the GI50 (in general, the concentration giving 50% growth inhibition) in the assay on MOLT-4 came out at 285 nM; in the assay with HOP-92 it was 467 nM; in the assay with NCI-H322M it was 581 nM; in the assay on NCI-H522, 47.7 nM; in the assay on SK-MEL-2 it was 381 nM; with UACC-62, 39.9 nM. In addition, the GI50 worked out at 61.1 nM in the assay on IGROVI; 821 nM in the assay with OVCAR-4; 364 nM in the assay on OVCAR-8; 506 nM with SK-OV-3; 728 nM in the assay with ACHN; 366 nM in the assay on CAKI-1. Also, the GI50 turned out to be 286 nM in the assay with HCT-116; 127 nM with HCT-15; 283 nM with MALME-3M; 134 nM in the assay on RXF 393; 347 nM in the assay on UO-31; 224 nM with DU-145. The GI50 was 118 nM with MCF7 and 595 nM in the assay with MDA-MB-231/ATCC. Besides, the “effect on microtubule structure (in words)” value in assay [1] is reported as “caused dose-dependent losses of microtubules”.
